{"source": "paper PMC8976035", "about": "“Pharmacodynamic, pharmacokinetic, and phase 1a study of bisthianostat, a novel histone deacetylase inhibitor, for the treatment of relapsed or refractory multiple myeloma” (Acta Pharmacologica Sinica, 2021)", "key": {"[1]": {"settings": "cited from earlier work"}, "hERG": {"target": "hERG (Homo sapiens, UniProt Q12809)", "sequence (Q12809 whole entry)": "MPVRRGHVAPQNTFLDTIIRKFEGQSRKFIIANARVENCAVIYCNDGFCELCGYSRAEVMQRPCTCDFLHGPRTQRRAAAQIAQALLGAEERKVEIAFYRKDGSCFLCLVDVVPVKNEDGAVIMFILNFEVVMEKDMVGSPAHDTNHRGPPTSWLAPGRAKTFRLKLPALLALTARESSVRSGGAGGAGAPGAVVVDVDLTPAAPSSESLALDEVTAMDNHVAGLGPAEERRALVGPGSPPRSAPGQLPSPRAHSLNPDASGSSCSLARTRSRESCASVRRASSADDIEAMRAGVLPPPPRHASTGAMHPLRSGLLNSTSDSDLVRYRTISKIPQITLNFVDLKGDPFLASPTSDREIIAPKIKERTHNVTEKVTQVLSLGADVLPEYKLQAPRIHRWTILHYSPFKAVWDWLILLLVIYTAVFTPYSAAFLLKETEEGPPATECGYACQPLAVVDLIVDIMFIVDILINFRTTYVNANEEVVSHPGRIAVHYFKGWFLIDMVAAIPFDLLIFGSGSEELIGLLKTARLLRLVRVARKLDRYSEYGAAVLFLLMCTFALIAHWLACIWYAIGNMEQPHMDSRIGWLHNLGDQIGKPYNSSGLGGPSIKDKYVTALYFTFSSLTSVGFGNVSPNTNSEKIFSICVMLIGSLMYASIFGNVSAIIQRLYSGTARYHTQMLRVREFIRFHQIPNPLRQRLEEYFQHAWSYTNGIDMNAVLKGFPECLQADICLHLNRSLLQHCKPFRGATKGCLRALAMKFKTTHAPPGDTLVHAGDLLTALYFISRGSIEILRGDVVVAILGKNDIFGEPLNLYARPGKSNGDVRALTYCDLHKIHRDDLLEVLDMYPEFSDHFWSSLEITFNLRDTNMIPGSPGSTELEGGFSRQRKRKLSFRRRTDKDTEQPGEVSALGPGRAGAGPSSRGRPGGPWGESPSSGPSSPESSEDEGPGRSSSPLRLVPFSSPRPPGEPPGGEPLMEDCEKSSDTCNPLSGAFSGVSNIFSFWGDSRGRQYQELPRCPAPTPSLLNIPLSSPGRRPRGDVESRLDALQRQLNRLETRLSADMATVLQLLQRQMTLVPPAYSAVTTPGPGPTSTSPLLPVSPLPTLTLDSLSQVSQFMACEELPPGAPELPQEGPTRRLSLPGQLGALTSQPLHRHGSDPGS", "settings": "cited from earlier work"}, "MM.1S xenograft": {"system": "MM.1S xenograft", "experiment": "MM xenograft mouse model, single agent, 18 days", "assay_type": "in vivo, NOD/SCID mice", "settings": "for body weight versus control: 18 days treatment", "experimental": "(§1) Tumor size was measured every other day using calipers, and tumor volume was calculated with the formula: V = 0.5 (a × b^2), where a is the long diameter of the tumor and b is the short diameter of the tumor. Mice were killed when the tumor reached 2 cm^3 or was ulcerated. Tumor growth was evaluated from the first day of treatment until the end of experiment."}, "RPMI-8226 xenograft": {"system": "RPMI-8226 xenograft", "experiment": "MM xenograft mouse model, single agent, 18 days", "assay_type": "in vivo, NOD/SCID mice", "settings": "for body weight versus control: 18 days treatment", "experimental": "as §1"}, "SIRT1": {"target": "SIRT1 (Homo sapiens, UniProt Q96EB6)", "sequence (Q96EB6 whole entry, species assumed)": "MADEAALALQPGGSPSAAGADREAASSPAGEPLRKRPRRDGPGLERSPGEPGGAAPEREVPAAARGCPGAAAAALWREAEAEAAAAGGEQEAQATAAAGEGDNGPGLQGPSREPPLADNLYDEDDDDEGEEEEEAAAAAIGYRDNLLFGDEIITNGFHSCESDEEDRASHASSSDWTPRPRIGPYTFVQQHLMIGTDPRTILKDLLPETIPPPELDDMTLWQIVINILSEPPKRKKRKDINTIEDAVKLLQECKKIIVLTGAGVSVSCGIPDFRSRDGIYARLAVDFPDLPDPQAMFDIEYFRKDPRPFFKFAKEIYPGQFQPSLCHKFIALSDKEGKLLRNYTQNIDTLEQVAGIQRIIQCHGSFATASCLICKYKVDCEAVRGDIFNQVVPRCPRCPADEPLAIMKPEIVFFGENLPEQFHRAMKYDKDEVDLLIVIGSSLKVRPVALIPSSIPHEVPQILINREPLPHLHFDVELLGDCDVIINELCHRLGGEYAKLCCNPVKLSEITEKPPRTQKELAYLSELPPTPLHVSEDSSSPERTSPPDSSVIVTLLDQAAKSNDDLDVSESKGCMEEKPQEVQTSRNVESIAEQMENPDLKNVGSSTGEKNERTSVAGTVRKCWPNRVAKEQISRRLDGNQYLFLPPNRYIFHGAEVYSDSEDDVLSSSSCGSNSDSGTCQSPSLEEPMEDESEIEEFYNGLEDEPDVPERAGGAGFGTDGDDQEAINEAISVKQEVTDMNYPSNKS", "experiment": "non-HDAC enzyme inhibition selectivity", "assay_type": "biochemical", "settings": "read-out: Inhibition rate (%) (200 μM)"}, "SIRT2": {"target": "SIRT2 (Homo sapiens, UniProt Q8IXJ6)", "sequence (Q8IXJ6 whole entry, species assumed)": "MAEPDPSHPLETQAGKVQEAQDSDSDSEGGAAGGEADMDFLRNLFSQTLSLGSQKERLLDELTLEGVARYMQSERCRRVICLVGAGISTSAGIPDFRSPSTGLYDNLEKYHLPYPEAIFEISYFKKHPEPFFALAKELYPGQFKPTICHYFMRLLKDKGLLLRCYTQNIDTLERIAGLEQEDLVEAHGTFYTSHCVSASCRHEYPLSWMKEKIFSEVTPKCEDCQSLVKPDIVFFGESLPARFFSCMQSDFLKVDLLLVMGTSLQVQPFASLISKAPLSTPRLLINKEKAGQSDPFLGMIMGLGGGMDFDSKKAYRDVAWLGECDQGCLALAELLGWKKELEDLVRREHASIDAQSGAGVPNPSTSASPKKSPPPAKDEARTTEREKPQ", "experiment": "non-HDAC enzyme inhibition selectivity", "assay_type": "biochemical", "settings": "read-out: Inhibition rate (%) (200 μM)"}, "SIRT3": {"target": "SIRT3 (Homo sapiens, UniProt Q9NTG7)", "sequence (Q9NTG7 whole entry, species assumed)": "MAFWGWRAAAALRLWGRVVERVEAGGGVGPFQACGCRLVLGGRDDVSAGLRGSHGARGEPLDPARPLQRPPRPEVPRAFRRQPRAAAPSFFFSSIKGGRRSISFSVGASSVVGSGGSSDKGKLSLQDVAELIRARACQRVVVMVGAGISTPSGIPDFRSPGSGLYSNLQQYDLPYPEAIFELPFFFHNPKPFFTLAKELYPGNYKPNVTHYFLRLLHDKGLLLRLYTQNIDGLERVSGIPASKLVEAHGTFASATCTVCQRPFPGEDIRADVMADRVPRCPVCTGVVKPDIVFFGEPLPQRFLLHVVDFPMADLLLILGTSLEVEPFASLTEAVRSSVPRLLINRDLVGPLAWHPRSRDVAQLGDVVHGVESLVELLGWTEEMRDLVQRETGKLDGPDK", "experiment": "non-HDAC enzyme inhibition selectivity", "assay_type": "biochemical", "settings": "read-out: Inhibition rate (%) (200 μM)"}, "MM.1S tumor tissues": {"system": "MM.1S tumor tissues", "experiment": "PD analysis of acetylation in tumor tissue by Western blotting", "assay_type": "in vivo, NOD/SCID mice", "settings": "75 mg·kg^-1·d^-1 bid, 1 h after last dose", "experimental": "For PD analysis, mice were killed 1 h after treatment, tumor tissues were collected for WB analysis of acetylated α-tubulin and acetylated histone H3 levels, as before indicated."}, "[2]": {"set-up": "method as in PMID 19356036", "settings": "rat and dog; cited from earlier work"}, "HDAC5": {"system": "HDAC5", "settings": "cited from earlier work"}, "MMP12": {"target": "MMP12 (Homo sapiens, UniProt P39900)", "sequence (P39900 106-470, species assumed)": "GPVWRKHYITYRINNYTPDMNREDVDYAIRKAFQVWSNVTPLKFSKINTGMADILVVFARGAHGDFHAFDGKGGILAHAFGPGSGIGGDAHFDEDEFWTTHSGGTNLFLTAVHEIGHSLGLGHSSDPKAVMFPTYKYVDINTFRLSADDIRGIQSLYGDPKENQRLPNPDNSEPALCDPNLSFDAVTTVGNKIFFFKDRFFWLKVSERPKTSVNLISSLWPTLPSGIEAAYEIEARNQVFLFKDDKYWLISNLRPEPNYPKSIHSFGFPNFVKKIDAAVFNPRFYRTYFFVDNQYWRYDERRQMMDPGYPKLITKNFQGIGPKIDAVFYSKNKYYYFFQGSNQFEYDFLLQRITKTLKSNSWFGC", "experiment": "non-HDAC enzyme inhibition selectivity", "settings": "read-out: Inhibition rate (%) (200 μM)"}, "DPP4": {"target": "DPP4 (Homo sapiens, UniProt P27487)", "sequence (P27487 whole entry, species assumed)": "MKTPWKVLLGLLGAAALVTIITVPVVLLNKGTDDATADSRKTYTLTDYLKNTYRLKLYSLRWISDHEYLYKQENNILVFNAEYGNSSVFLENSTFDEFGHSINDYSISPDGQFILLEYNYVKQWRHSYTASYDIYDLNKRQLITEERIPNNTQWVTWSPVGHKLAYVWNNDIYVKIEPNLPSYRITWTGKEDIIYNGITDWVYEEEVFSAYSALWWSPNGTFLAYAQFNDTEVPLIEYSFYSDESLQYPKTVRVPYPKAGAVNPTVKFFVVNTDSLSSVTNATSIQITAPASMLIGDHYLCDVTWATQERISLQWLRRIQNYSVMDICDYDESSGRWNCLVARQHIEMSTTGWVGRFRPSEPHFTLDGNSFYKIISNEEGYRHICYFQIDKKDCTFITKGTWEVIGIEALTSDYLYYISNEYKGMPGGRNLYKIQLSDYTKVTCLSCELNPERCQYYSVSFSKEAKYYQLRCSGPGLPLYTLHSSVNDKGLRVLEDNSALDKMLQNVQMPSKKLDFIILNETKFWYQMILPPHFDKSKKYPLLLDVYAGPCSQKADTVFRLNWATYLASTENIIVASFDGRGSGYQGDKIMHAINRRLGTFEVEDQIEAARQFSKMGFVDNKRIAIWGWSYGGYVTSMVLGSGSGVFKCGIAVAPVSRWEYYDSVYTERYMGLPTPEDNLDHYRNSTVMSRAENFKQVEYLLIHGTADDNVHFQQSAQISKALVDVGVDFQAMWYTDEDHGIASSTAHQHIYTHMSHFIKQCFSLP", "experiment": "non-HDAC enzyme inhibition selectivity", "settings": "read-out: Inhibition rate (%) (200 μM)"}, "Caspase3": {"target": "T1, Caspase3 (Homo sapiens, UniProt P42574)", "T1 sequence (P42574 29-175 limits assumed)": "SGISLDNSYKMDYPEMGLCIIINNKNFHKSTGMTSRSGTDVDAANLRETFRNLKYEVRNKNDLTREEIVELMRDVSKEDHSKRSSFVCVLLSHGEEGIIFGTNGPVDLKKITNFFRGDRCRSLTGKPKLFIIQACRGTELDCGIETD", "T1 sequence (P42574 176-277 limits assumed)": "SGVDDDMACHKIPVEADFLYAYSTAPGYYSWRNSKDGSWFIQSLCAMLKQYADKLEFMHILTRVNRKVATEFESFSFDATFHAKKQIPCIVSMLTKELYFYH", "experiment": "non-HDAC enzyme inhibition selectivity", "settings": "read-out: Inhibition rate (%) (200 μM)"}, "PKCepsilon": {"target": "T2, PKCepsilon (Homo sapiens, UniProt Q02156)", "T2 sequence (Q02156 1-737)": "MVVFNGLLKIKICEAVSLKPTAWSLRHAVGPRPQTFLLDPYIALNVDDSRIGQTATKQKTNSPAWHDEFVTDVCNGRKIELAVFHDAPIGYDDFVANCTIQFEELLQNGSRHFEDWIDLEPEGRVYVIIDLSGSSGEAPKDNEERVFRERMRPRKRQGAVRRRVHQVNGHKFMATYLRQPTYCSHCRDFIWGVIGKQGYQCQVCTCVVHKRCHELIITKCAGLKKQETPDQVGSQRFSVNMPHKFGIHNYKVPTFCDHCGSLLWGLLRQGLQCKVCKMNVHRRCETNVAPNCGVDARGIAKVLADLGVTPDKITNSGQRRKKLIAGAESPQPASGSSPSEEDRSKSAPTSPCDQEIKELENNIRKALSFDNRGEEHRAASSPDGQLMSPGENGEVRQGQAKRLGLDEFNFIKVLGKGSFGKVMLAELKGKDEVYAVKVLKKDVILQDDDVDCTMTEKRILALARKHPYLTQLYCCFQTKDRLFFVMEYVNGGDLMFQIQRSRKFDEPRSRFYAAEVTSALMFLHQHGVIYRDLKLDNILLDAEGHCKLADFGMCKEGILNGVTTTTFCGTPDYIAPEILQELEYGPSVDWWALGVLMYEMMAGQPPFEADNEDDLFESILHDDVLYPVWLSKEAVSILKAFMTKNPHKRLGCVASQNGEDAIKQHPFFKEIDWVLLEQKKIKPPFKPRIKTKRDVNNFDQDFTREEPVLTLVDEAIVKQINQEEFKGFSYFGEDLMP", "experiment": "non-HDAC enzyme inhibition selectivity", "settings": "read-out: Inhibition rate (%) (200 μM)"}, "AuroraA": {"target": "AuroraA (Homo sapiens, UniProt O14965)", "sequence (O14965 whole entry)": "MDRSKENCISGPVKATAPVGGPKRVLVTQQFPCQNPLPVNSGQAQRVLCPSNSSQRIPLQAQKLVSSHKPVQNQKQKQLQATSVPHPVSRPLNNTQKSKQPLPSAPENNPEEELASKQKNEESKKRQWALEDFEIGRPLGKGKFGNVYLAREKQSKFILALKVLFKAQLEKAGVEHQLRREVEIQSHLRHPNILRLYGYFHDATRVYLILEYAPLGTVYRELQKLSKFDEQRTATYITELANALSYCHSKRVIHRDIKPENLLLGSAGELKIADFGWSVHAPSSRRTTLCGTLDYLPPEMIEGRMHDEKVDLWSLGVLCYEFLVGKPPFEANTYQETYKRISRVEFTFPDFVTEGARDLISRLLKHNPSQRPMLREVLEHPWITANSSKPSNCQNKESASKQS", "experiment": "non-HDAC enzyme inhibition selectivity", "settings": "read-out: Inhibition rate (%) (200 μM)"}, "Braf": {"target": "Braf (Homo sapiens, UniProt P15056)", "sequence (P15056 whole entry, species assumed)": "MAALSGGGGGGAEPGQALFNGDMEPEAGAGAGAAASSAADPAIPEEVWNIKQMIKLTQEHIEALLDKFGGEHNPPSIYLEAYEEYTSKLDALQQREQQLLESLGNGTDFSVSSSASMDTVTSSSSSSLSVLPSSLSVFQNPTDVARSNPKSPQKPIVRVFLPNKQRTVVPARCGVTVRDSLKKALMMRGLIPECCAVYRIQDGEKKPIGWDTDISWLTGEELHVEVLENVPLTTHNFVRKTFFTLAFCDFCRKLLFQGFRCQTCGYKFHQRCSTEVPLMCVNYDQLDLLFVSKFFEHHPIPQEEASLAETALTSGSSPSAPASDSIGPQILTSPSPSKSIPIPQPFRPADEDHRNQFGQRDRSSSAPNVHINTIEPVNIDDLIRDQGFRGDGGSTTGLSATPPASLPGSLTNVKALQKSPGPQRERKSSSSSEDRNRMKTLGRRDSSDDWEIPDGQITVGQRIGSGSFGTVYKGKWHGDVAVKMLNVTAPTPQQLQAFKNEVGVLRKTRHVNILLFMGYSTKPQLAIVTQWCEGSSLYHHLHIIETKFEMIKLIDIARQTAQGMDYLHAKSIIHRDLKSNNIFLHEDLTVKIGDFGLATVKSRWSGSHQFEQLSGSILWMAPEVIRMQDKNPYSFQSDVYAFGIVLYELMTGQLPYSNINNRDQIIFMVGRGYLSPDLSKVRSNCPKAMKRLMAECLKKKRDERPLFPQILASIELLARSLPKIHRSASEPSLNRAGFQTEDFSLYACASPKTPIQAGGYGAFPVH", "experiment": "non-HDAC enzyme inhibition selectivity", "settings": "read-out: Inhibition rate (%) (200 μM)"}, "Syk": {"target": "Syk (Homo sapiens, UniProt P43405)", "experiment": "non-HDAC enzyme inhibition selectivity", "settings": "read-out: Inhibition rate (%) (200 μM)"}, "PTP1B": {"target": "T3, PTP1B (Homo sapiens, UniProt P18031)", "T3 sequence (P18031 1-435)": "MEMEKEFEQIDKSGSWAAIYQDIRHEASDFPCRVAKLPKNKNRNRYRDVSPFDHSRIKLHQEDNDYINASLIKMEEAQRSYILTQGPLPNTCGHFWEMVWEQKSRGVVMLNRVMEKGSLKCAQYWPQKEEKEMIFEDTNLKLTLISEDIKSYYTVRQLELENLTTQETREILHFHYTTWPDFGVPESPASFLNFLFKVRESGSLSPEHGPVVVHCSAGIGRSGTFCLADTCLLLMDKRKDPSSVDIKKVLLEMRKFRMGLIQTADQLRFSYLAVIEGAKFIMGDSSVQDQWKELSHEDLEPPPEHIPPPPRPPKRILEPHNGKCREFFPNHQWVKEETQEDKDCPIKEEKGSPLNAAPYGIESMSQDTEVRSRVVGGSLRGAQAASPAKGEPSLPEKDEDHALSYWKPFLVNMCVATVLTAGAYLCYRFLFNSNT", "experiment": "non-HDAC enzyme inhibition selectivity", "settings": "read-out: Inhibition rate (%) (200 μM)"}, "[3]": {"settings": "75 mg·kg^-1·d^-1 bid, oral, 18 days"}}}
{"compound": "O=C(/C=C/c1cccc(S(=O)(=O)Nc2ccccc2)c1)NO", "note": "[Belinostat]", "values": [{"measurement": "t1/2", "setting": "[1]", "result": 1.6, "unit": "h"}]}
{"compound": "CCCCc1nc2cc(/C=C/C(=O)NO)ccc2n1CCN(CC)CC", "note": "[SB939, (2E)-3-{2-butyl-1-[2-(diethylamino)ethyl]-1H-benzimidazol-5-yl}-N-hydroxyacrylamide]", "values": [{"measurement": "concentration up to which no binding to hERG channels", "setting": "hERG", "result": "> 10", "unit": "µM"}]}
{"compound": "CC(C)C[C@H](NC(=O)[C@H](Cc1ccccc1)NC(=O)c1cnccn1)B(O)O", "note": "[PS341]", "values": [{"measurement": "body weight versus control", "setting": "MM.1S xenograft", "result": "no significant weight loss"}, {"measurement": "body weight versus control", "setting": "RPMI-8226 xenograft", "result": "no significant weight loss"}]}
{"compound": "Cc1[nH]c2ccccc2c1CCNCc1ccc(/C=C/C(=O)NO)cc1", "note": "[Panobinostat]", "values": [{"measurement": "IC50", "setting": "hERG; read-out: IC50 for hERG inhibition", "result": 3100, "unit": "nM"}]}
{"compound": "O=C(CCCCCCC(=O)Nc1ccccc1)NO", "note": "[SAHA]", "values": [{"measurement": "inhibition at 200 µM", "setting": "SIRT1", "result": "7.6 ± 8.8", "unit": "%"}, {"measurement": "inhibition at 200 µM", "setting": "SIRT2", "result": "43.6 ± 0.8", "unit": "%"}, {"measurement": "inhibition at 200 µM", "setting": "SIRT3", "result": "27.8 ± 9.2", "unit": "%"}, {"measurement": "T/C (%)", "setting": "MM.1S xenograft; [3]", "result": 49.40, "unit": "%"}, {"measurement": "body weight versus control", "setting": "MM.1S xenograft", "result": "no significant weight loss"}, {"measurement": "T/C (%)", "setting": "RPMI-8226 xenograft; [3]", "result": 36.37, "unit": "%"}, {"measurement": "body weight versus control", "setting": "RPMI-8226 xenograft", "result": "no significant weight loss"}, {"measurement": "acetylated α-tubulin and acetylated histone H3 levels in tumor tissues", "setting": "MM.1S tumor tissues", "result": "significant enhancement"}, {"measurement": "concentration up to which hERG K^+ channels not affected", "setting": "hERG", "result": "[…]"}, {"measurement": "elimination half-life", "setting": "[2]", "result": "short"}, {"measurement": "oral bioavailability", "setting": "[2]", "result": "low"}, {"measurement": "serum clearance", "setting": "[2]", "result": "high"}, {"measurement": "IC50", "setting": "HDAC5", "result": "[…]"}, {"measurement": "inhibition at 200 µM", "setting": "MMP12", "result": "61.1 ± 3.3", "unit": "%"}, {"measurement": "inhibition at 200 µM", "setting": "DPP4", "result": "11.3 ± 5.4", "unit": "%"}, {"measurement": "inhibition at 200 µM", "setting": "Caspase3", "result": "3.9 ± 2.5", "unit": "%"}, {"measurement": "inhibition at 200 µM", "setting": "PKCepsilon", "result": "0.2 ± 5.7", "unit": "%"}, {"measurement": "inhibition at 200 µM", "setting": "AuroraA", "result": "18.8 ± 7.8", "unit": "%"}, {"measurement": "inhibition at 200 µM", "setting": "Braf", "result": "17.6 ± 9.8", "unit": "%"}, {"measurement": "inhibition at 200 µM", "setting": "Syk", "result": "13.7 ± 1.8", "unit": "%"}, {"measurement": "inhibition at 200 µM", "setting": "PTP1B", "result": "9.3 ± 6.2", "unit": "%"}]}
